Data set [1] concerns the target T1, Melanocortin receptor 4 (Homo sapiens, UniProt P32245). Kind of data set: Binding affinity to MC4R by membrane filtration assay.
Data set [2] deals with T1, Melanocortin receptor 4. The data set can be described thus: Antagonist activity against MC4R by cAMP functional assay.
Data set [3] concerns the target Voltage-gated inwardly rectifying potassium channel KCNH2 (Homo sapiens, UniProt Q12809). Kind of data set: Binding affinity to hERG.
The nature of data set [4]: Plasma half life in iv dosed rat. The format is ADME, organism-based.
Data set [5] in a line: Oral bioavailability in rat. The format is ADME, organism-based. To be noted: in vivo.

The text below walks through data of ChEMBL document CHEMBL1146974, “Identification and structure-activity relationships of a new series of Melanocortin-4 receptor antagonists” (Bioorg Med Chem Lett, 2006).

pIC50, pKi: −log10 of the molar value. Some results are limits rather than exact numbers.

T1 sequence (P32245 whole entry): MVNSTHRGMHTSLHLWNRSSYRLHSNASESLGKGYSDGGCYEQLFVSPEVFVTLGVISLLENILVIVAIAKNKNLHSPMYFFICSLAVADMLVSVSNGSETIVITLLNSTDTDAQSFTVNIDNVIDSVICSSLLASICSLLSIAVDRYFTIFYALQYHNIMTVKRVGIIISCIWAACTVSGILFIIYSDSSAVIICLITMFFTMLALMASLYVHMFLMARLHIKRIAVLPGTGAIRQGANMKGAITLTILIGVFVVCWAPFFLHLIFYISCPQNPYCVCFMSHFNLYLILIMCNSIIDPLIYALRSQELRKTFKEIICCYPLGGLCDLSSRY
Chain of Voltage-gated inwardly rectifying potassium channel KCNH2 (Q12809 whole entry): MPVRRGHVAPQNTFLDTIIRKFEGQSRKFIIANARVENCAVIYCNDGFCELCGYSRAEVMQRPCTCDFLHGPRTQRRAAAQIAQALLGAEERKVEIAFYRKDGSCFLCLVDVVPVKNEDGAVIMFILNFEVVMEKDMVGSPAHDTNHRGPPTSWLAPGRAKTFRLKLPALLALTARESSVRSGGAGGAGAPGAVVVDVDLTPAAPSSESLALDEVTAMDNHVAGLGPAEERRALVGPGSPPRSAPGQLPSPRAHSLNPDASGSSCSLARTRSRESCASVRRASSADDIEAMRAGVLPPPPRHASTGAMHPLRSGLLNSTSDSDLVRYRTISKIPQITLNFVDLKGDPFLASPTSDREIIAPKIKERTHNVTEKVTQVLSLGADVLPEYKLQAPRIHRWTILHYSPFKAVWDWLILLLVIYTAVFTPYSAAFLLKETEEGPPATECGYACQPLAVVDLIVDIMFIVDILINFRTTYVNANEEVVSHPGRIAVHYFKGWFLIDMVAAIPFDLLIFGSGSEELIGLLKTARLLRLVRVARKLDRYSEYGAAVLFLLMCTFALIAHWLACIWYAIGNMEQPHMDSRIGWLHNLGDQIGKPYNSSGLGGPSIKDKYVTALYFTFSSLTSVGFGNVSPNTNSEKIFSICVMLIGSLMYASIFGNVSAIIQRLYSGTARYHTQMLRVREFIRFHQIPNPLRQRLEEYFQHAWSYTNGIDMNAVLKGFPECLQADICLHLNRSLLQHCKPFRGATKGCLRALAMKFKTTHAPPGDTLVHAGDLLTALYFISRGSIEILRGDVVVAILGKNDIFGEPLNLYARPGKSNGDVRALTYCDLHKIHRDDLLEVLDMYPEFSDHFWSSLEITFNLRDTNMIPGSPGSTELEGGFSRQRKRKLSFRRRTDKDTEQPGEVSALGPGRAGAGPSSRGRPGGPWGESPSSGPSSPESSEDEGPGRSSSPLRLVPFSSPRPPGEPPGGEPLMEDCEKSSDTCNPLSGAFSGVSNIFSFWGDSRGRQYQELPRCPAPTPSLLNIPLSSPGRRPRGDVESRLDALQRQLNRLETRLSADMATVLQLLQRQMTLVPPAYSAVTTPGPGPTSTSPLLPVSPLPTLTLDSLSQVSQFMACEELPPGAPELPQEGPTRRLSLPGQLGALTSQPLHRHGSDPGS

Turning to `COc1ccc(Br)cc1CCc1c(F)cccc1C(=O)/N=C(\N)NCCCCN(C)Cc1cccc2ccccc12`, the pKi at Melanocortin receptor 4 [1] is 7.24. Also, the pIC50 against Melanocortin receptor 4 [2] is 5.92.
For `COc1ccc(Br)cc1CCc1c(F)cccc1C(=O)/N=C(\N)NCCCCN1CCc2ccccc2C1`, the pKi on Melanocortin receptor 4 [1] was 7.59. For the same compound, the pIC50 against Melanocortin receptor 4 [2] is 6.19.
For `CCN(CC)CCCC(C)N=C(N)NC(=O)c1cccc(F)c1OCc1cc(Br)ccc1OC` (stereo not given) the same measures were 6.05 and 6.28.
For `CCN(CC)CCCC(C)/N=C(/N)NC(=O)c1cccc(F)c1CCc1cc(Br)ccc1OC` (stereo not given) the same measures were 8.37 and 6.89.
On to `CCCCN=C(N)NC(=O)c1cccc(F)c1CCc1cc(Br)ccc1OC`, for which the pKi on Melanocortin receptor 4 [1] is 6.04.
As for `CCN(CC)CCCC(C)/N=C(/N)NC(=O)c1cccc(F)c1CCc1cccc2ccccc12` (stereo not given), the negative logarithm of the Ki (pKi) on Melanocortin receptor 4 [1] is 7.05. Also, on Melanocortin receptor 4 [2], the pIC50 was 5.82.
For `CCN1CCC(C/N=C(/N)NC(=O)c2cccc(F)c2CCc2cc(Br)ccc2OC)CC1` the same measures were 8.55 and 7.01.
In the same order, the values of `CCN(CC)CCCC(C)N=C(N)NC(=O)c1cccc(F)c1CCc1ccccc1Cl` (stereo not given) are 4.59 and < 4.48.
For `CCN(CC)CCCC(C)/N=C(\NC(=O)c1cccc(F)c1CCc1cc(Br)ccc1OC)NC(C)C` (stereo not given) the same measures were 5.60 and 4.77.
Regarding `COc1ccc(Br)cc1CCc1c(Cl)cccc1C1=NCCN1`, in data set [3], the pKi is 6.08.
Consider `COc1ccc(Br)cc1CCc1c(F)cccc1C(=O)/N=C(\N)NCCCCN1CCCCC1`, for which the pKi at Melanocortin receptor 4 [1] was 9.24. Also, at Melanocortin receptor 4 [2], the pIC50 was 7.15.
In turn, `COc1ccc(Br)cc1CCc1c(F)cccc1C(=O)/N=C(\N)NCCCNC1CCCCC1` had a pKi at Melanocortin receptor 4 [1] of 7.10. This compound gave a pIC50 at Melanocortin receptor 4 [2] of 5.24.
For `COc1ccc(Br)cc1CCc1c(F)cccc1C(=O)NC(N)=NCCCN1CCN(C)CC1` the same measures were 7.19 and 6.17.
`CCN(CC)CCCC(C)N=C(N)NC(=O)c1cccc(F)c1CCc1cc(Br)ccc1Cl` (stereo not given) gave a pKi on Melanocortin receptor 4 [1] of 6.96. Moreover, at Melanocortin receptor 4 [2], the pIC50 was 6.18.
In the case of `COc1ccc(Br)cc1CCc1c(F)cccc1C(=O)/N=C(\N)NCCCN1CCCCC1`, the pKi at Melanocortin receptor 4 [1] is 8.49. Also, the half-life in data set [4] was 31 h. The same compound yielded a bioavailability in data set [5] of 6.3%. Also, the pIC50 at Melanocortin receptor 4 [2] was 6.48.
As for `COc1ccc(Br)cc1CCc1c(F)cccc1C(=O)/N=C(\N)NCCN1CCCC1`, on Melanocortin receptor 4 [1], the pKi was 6.72. On Melanocortin receptor 4 [2], this compound gave a pIC50 of 5.35.
`CCN(CC)CCCC(C)/N=C(\NC(=O)c1cccc(F)c1CCc1cc(Br)ccc1OC)Nc1ccccc1` (stereo not given) gave a pKi at Melanocortin receptor 4 [1] of 5.39.
At Melanocortin receptor 4 [1], `COc1ccc(Br)cc1CCc1c(F)cccc1C(=O)/N=C(\N)NCC(C)C` gave a pKi of 6.11. Also, the negative-log IC50 (pIC50) against Melanocortin receptor 4 [2] is 5.07.
For `COc1ccc(Br)cc1CCc1c(F)cccc1C(=O)NC(N)=NCCC1CCCCC1`, at Melanocortin receptor 4 [1], the pKi was 5.59.
`CCN(CC)CCCC(C)N=C(N)NC(=O)c1ccsc1CCc1cc(Br)ccc1OC` (stereo not given) had a pKi on Melanocortin receptor 4 [1] of 7.96. Further, the pIC50 at Melanocortin receptor 4 [2] was 6.59.
In the same order, the values of `CCN(CC)CCCC(C)N=C(N)NC(=O)c1cccc(F)c1CCc1ccc2ccccc2c1` (stereo not given) are 6.16 and 5.74.
`COc1ccc(Br)cc1CCc1c(F)cccc1C(=O)/N=C(\N)NCCCCN(C)Cc1ccccc1` gave a pKi at Melanocortin receptor 4 [1] of 8.29. Besides, the pIC50 at Melanocortin receptor 4 [2] is 6.74.
In the case of `CCN(CC)CCCC(C)/N=C(/NC)NC(=O)c1cccc(F)c1CCc1cc(Br)ccc1OC` (stereo not given), on Melanocortin receptor 4 [1], the pKi was 5.20.
Compound `CCN(CC)CCCC(C)N=C(N)NC(=O)c1cccc(F)c1CCc1cc(OC)cc(OC)c1` (stereo not given) gave a pKi at Melanocortin receptor 4 [1] of 7.85. The pIC50 against Melanocortin receptor 4 [2] is 6.77.
In the same order, the values of `CCN(CC)CCCC(C)N=C(N)NC(=O)c1cccc(Cl)c1CCc1cc(Br)ccc1OC` (stereo not given) are 9.08 and 6.59.
For `COc1ccc(Br)cc1CCc1c(F)cccc1C(=O)/N=C(\N)NCCCCN1CCC2CCCCC2C1` (stereo not given) the same measures were 7.68 and 6.41.
Compound `COc1ccc(Br)cc1CCc1c(F)cccc1C1=NCCN1` gave a half-life in data set [4] of 1 h. In data set [5], this compound had a bioavailability of 4.6%.
Turning to `COc1ccc(Br)cc1CCc1c(Cl)cccc1C(=O)N=C(N)N`, at Melanocortin receptor 4 [1], the pKi was 6.15. The same compound gave a pIC50 against Melanocortin receptor 4 [2] of 5.59.
On to `COc1ccc(Br)cc1CCc1c(F)cccc1C(=O)NC(N)=NCC1CCNCC1`, for which the pKi on Melanocortin receptor 4 [1] was 7.89. This compound showed a pIC50 against Melanocortin receptor 4 [2] of 7.51.
